Results: ChEMBL document CHEMBL5678818, “Discovery of potent SOS1 inhibitors that block RAS activation via disruption of the RAS-SOS1 interaction” (Proc Natl Acad Sci U S A, 2019)

Key:
[1] = test system: Mast/stem cell growth factor receptor Kit (Homo sapiens), P10721 [L576P]; test: Inhibition of KIT L576P mutant (unknown origin) assessed as residual activity at 1000 nM by KINOMEscan analysis relative to control
[2] = target: Phosphatidylinositol 4,5-bisphosphate 3-kinase catalytic subunit alpha isoform (Homo sapiens) (UniProt P42336); test: Inhibition of PIK3CA (unknown origin) assessed as residual activity at 1000 nM by KINOMEscan analysis relative to control
[3] = target: T1, Phosphatidylinositol 5-phosphate 4-kinase type-2 gamma (Homo sapiens) (UniProt Q8TBX8); test: Inhibition of PIP5K2C (unknown origin) assessed as residual activity at 1000 nM by KINOMEscan analysis relative to control
T1 sequence (whole entry): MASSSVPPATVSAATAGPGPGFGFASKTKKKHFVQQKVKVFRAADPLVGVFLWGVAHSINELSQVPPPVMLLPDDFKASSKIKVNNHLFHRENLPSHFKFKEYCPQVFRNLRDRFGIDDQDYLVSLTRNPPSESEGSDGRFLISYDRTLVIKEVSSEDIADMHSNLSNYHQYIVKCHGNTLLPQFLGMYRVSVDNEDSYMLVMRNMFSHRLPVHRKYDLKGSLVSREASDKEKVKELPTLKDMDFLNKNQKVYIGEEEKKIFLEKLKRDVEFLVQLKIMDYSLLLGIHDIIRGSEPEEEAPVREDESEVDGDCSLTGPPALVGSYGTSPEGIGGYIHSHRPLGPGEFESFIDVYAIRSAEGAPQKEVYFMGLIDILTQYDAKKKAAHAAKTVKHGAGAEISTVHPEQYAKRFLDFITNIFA

[4] = target: Serine/threonine-protein kinase NIM1 (Homo sapiens) (UniProt Q8IY84); test: Inhibition of NIM1 (unknown origin) assessed as residual activity at 1000 nM by KINOMEscan analysis relative to control
[5] = test system: Fibroblast growth factor receptor 3 (Homo sapiens), P22607 [G697C]; test: Inhibition of FGFR3 G697C mutant (unknown origin) assessed as residual activity at 1000 nM by KINOMEscan analysis relative to control
[6] = target: Mitogen-activated protein kinase 14 (Homo sapiens) (UniProt Q16539); test: Inhibition of p38-alpha (unknown origin) assessed as residual activity at 1000 nM by KINOMEscan analysis relative to control
[7] = target: Receptor tyrosine-protein kinase erbB-3 (Homo sapiens) (UniProt P21860); test: Inhibition of ERBB3 (unknown origin) assessed as residual activity at 1000 nM by KINOMEscan analysis relative to control
[8] = test system: Epidermal growth factor receptor (Homo sapiens), P00533 [UNDEFINED MUTATION]; test: Inhibition of EGFR L747-E749del/A750P mutant (unknown origin) assessed as residual activity at 1000 nM by KINOMEscan analysis relative to control
[9] = target: Death-associated protein kinase 1 (Homo sapiens) (UniProt P53355); test: Inhibition of DAPK1 (unknown origin) assessed as residual activity at 1000 nM by KINOMEscan analysis relative to control
[10] = target: Microtubule-associated serine/threonine-protein kinase 1 (Homo sapiens) (UniProt Q9Y2H9); test: Inhibition of MAST1 (unknown origin) assessed as residual activity at 1000 nM by KINOMEscan analysis relative to control
[11] = target: T2, Dual specificity mitogen-activated protein kinase kinase 5 (Homo sapiens) (UniProt Q13163); test: Inhibition of MEK5 (unknown origin) assessed as residual activity at 1000 nM by KINOMEscan analysis relative to control
T2 sequence (whole entry): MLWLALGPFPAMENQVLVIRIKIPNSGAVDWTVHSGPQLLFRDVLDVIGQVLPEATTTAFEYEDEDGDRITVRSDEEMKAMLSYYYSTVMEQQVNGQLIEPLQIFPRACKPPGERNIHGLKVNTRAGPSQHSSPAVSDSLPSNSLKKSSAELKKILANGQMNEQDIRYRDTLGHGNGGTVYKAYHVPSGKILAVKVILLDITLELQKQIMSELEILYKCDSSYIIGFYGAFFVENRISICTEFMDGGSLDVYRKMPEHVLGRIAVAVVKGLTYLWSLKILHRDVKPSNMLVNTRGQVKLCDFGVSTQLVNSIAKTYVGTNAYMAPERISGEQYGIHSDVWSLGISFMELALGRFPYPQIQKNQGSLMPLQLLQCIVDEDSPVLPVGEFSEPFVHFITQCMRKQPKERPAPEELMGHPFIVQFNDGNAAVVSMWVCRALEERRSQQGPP

[12] = target: T3, Tyrosine-protein kinase ZAP-70 (Homo sapiens) (UniProt P43403); test: Inhibition of ZAP70 (unknown origin) assessed as residual activity at 1000 nM by KINOMEscan analysis relative to control
T3 sequence (whole entry): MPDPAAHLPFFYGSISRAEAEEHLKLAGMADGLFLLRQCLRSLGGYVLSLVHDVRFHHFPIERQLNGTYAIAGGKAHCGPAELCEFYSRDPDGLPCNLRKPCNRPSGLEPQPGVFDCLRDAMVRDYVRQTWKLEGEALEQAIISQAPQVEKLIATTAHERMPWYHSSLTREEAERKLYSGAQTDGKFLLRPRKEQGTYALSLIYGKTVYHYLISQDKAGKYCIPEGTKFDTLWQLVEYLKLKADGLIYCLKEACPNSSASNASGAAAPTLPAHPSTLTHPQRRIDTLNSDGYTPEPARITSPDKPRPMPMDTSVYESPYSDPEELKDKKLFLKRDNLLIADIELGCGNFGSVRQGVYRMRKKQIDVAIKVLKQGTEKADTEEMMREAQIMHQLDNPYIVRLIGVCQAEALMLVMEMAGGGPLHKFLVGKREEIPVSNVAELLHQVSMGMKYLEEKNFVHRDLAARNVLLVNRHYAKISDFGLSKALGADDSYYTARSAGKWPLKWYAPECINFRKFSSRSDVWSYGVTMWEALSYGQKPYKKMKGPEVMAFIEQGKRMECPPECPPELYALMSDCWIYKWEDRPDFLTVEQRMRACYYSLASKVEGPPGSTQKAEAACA

[13] = target: Wee1-like protein kinase (Homo sapiens) (UniProt P30291); test: Inhibition of WEE1 (unknown origin) assessed as residual activity at 1000 nM by KINOMEscan analysis relative to control

Epidermal growth factor receptor (Homo sapiens), P00533 [UNDEFINED MUTATION], sequence (P00533 whole entry, looked up, stated change not applied): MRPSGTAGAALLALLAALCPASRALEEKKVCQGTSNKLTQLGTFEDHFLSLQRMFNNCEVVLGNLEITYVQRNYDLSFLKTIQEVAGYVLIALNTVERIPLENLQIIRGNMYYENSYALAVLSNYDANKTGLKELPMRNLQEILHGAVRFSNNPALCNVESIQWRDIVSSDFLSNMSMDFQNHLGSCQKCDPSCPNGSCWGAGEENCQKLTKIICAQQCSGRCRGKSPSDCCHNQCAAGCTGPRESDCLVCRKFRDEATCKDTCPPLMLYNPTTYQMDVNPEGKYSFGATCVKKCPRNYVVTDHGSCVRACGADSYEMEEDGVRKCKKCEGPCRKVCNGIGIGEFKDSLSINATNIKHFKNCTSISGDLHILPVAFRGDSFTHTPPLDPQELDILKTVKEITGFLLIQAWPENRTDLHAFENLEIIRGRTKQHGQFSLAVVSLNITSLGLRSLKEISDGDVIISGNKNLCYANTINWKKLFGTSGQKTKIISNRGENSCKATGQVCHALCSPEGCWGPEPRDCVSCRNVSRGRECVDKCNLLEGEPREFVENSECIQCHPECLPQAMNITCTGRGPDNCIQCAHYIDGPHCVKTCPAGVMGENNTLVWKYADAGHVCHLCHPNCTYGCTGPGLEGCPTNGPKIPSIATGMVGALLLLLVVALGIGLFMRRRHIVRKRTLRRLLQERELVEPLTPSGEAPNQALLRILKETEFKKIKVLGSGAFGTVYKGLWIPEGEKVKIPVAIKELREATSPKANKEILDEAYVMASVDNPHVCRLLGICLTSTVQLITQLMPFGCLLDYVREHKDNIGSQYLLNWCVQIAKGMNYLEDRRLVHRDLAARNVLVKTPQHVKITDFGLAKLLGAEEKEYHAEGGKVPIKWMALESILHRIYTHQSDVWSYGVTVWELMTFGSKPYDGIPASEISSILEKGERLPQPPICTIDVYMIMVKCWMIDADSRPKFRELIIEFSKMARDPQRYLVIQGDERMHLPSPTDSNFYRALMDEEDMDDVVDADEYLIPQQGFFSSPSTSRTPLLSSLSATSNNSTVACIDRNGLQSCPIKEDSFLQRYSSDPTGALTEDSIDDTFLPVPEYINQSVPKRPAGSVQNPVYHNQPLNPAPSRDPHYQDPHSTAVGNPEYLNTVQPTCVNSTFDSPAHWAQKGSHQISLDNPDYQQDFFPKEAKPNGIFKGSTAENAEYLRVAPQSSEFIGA
Serine/threonine-protein kinase NIM1 (Homo sapiens), sequence (Q8IY84 whole entry): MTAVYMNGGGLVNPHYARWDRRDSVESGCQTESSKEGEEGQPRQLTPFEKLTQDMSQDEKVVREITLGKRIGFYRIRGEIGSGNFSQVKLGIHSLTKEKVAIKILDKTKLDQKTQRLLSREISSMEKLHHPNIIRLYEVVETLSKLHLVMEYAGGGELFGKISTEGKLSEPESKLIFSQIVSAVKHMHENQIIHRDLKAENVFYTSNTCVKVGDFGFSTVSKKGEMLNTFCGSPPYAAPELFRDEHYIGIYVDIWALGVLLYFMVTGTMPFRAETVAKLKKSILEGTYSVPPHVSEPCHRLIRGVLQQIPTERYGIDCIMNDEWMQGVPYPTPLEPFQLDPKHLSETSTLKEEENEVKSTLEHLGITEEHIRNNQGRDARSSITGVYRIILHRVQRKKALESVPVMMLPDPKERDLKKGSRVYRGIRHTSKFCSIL
Death-associated protein kinase 1 (Homo sapiens), sequence (P53355 whole entry, looked up): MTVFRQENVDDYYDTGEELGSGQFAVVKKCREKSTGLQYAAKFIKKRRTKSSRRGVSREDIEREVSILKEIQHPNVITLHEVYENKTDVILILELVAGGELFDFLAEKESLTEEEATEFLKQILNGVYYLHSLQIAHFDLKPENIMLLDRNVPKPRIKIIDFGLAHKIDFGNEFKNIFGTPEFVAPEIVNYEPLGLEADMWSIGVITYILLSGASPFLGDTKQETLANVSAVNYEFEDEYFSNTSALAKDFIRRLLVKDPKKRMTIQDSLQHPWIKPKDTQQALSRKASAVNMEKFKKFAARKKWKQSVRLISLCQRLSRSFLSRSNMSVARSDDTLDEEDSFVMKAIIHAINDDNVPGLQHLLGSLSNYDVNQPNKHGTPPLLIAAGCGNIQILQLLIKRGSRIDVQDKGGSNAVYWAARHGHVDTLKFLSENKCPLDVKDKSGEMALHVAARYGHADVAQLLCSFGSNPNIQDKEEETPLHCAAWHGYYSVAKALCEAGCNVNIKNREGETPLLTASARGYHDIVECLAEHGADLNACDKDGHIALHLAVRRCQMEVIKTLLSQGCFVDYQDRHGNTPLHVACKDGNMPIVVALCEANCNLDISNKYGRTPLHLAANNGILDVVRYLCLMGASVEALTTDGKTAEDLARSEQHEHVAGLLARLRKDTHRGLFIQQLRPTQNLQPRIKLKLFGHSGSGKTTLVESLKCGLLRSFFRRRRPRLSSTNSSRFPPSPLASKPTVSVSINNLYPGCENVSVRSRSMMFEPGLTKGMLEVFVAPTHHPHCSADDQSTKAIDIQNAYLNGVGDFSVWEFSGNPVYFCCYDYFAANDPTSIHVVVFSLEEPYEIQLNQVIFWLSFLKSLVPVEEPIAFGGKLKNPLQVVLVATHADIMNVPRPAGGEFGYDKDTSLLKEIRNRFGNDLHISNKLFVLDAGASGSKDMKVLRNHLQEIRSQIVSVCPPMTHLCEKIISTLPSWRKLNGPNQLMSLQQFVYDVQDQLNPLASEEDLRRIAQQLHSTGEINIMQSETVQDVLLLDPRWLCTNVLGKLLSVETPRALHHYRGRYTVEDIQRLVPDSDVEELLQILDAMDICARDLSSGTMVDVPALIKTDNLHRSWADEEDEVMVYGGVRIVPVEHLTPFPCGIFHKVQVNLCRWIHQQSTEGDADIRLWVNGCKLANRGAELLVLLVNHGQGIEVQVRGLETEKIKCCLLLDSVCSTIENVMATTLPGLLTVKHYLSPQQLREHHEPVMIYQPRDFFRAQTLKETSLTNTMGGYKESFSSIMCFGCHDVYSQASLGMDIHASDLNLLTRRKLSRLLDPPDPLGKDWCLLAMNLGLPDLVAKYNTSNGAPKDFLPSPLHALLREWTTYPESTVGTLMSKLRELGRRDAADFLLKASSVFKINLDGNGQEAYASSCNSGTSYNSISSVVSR
Mast/stem cell growth factor receptor Kit (Homo sapiens), P10721 [L576P], sequence (P10721 whole entry L576P, canonical isoform): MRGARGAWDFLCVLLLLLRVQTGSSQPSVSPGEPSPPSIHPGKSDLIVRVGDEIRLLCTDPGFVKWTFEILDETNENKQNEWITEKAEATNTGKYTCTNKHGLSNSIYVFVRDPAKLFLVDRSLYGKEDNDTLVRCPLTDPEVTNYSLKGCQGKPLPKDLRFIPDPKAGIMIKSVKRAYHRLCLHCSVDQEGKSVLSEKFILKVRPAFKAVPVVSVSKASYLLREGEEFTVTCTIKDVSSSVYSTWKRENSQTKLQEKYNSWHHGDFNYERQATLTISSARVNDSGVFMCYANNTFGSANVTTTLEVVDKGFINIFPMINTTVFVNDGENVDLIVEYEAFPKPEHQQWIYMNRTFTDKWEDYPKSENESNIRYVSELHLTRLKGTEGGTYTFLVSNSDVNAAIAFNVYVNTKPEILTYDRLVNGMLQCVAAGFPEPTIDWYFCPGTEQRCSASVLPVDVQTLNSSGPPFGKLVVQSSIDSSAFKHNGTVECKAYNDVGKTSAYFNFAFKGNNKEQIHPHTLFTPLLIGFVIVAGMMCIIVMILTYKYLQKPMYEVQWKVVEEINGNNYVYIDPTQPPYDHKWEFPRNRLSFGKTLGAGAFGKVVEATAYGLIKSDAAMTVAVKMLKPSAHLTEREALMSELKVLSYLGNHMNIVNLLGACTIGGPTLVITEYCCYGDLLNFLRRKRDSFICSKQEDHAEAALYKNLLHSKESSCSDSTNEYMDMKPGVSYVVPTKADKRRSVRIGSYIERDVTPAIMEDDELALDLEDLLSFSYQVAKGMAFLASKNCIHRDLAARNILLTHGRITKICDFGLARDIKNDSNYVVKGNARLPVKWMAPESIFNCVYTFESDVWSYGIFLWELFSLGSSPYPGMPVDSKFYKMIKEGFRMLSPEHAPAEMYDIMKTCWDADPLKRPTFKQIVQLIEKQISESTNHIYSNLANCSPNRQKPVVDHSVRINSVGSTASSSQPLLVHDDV
Phosphatidylinositol 4,5-bisphosphate 3-kinase catalytic subunit alpha isoform (Homo sapiens), sequence (P42336 whole entry, canonical isoform): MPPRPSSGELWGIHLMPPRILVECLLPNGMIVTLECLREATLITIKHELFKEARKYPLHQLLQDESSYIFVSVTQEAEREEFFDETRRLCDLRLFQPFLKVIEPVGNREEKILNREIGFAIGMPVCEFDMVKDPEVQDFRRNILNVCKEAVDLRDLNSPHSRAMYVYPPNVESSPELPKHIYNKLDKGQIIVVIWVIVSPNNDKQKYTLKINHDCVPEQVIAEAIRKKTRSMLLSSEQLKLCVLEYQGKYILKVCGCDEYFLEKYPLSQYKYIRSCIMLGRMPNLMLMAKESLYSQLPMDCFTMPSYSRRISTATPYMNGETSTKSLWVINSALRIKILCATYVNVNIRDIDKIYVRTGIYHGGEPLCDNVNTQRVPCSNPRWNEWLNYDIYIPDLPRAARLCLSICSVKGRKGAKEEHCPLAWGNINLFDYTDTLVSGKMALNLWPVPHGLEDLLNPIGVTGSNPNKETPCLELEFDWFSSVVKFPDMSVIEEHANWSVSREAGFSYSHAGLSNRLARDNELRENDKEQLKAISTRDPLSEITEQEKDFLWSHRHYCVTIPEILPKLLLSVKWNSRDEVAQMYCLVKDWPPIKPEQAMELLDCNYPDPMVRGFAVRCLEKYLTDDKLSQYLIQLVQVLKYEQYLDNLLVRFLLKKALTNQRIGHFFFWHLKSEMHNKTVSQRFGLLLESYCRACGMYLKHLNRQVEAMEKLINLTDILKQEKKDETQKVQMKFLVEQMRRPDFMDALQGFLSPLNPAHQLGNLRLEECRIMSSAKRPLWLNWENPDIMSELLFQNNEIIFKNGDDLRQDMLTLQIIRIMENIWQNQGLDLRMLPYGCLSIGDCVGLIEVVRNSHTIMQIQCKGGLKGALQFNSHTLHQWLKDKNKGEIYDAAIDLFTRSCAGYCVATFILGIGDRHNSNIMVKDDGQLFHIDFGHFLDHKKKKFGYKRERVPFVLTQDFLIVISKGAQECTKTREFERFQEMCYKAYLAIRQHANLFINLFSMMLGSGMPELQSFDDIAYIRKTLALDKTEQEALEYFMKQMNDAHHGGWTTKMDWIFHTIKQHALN

Row | SMILES | Activity [1] [%] | Activity [2] [%] | Activity [3] [%] | Activity [4] [%] | Activity [5] [%] | Activity [6] [%] | Activity [7] [%] | Activity [8] [%] | Activity [9] [%] | Activity [10] [%] | Activity [11] [%] | Activity [12] [%] | Activity [13] [%]
1 | COc1cc2nc(C)nc(N[C@H](C)c3cccc(-c4cn[nH]c4)c3)c2cc1OC | 85 | 96 | 69 | 88 | 35 | 98 | 96 | 99 | 82 | 64 | 61 | 82 | 84
2 | COc1cc2ncnc(N[C@H](C)c3cccc4ccccc34)c2cc1OC | 95 | 73 | 80 | 78 | 100 | 58 | 92 | 3.2 | 100 | 91 | 89 | 97 | 100
